Activity calls are given as the source filed them.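 Rule for the calls: active = in confirmatory dose-response testing, peak deubiquitinase inhibition of 30% or more; inactive = the rest.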
Biological target: Ubiquitin carboxyl-terminal hydrolase 28 (Homo sapiens) (UniProt Q96RU2)
Assay: Concentration-response biochemical assay confirming initial hits as inhibitors of ubiquitin-specific protease 28 (AID 1645866)
Settings: purified USP28, ubiquitin-rhodamine fluorescence, 30 min

Chain of Ubiquitin carboxyl-terminal hydrolase 28 (Homo sapiens) (Q96RU2 whole entry, looked up): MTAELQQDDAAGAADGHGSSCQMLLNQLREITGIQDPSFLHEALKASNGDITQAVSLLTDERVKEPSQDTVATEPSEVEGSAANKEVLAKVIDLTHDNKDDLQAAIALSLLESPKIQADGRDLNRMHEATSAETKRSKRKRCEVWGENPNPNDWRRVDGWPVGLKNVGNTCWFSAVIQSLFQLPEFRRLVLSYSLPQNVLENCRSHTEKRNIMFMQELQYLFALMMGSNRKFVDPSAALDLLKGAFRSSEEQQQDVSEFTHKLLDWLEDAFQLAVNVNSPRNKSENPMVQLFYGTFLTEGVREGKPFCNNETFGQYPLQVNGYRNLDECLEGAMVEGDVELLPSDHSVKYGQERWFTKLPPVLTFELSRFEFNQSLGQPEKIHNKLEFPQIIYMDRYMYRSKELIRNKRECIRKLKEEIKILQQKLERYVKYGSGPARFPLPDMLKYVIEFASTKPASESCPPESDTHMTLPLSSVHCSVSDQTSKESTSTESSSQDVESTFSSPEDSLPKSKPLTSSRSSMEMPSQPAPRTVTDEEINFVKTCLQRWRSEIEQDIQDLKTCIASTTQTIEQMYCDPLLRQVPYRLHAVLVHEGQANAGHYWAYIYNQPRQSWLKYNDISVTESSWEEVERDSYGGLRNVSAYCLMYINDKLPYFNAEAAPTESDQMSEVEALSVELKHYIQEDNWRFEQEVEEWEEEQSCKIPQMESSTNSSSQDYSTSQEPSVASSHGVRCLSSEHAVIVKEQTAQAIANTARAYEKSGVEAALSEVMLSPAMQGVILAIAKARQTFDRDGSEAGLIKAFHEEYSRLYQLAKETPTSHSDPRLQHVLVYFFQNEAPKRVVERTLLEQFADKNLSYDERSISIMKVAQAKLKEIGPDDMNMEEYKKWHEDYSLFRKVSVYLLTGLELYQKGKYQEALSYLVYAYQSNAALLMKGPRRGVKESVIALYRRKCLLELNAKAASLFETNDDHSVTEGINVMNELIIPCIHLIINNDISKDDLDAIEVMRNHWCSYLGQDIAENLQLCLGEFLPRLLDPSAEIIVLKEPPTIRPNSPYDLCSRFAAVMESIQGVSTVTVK

SMILES | IC50
Cc1c(C)c2ccc(OCC(=O)NCc3ccncc3)c(C)c2oc1=O | 49.2 µM
O=C(Nc1ccc(F)cc1F)NC1Cc2ccccc2C1 | 44.1 µM
CN1CCN(c2ncnc3c2oc2ccc(Cl)cc23)CC1 | > 50 µM (inactive)
COc1cc(Cn2cnc3c([nH]c4ccc(Br)cc43)c2=O)cc(OC)c1 | 2.76 µM
COc1ccc(-c2cc(C(=O)N3CCN(c4ccc([N+](=O)[O-])cc4)CC3)[nH]n2)cc1 | > 50 µM (inactive)
Cc1cc(-c2cnc(N(C)C)nc2-c2ccc(CNC(=O)Cc3ccc(F)cc3)cc2)on1 | 28.7 µM
CCC(=O)Nc1ccc2c(c1)nc(CSc1nccc(C)n1)n2CC | 0.365 µM
COc1ccc(OC)c(-c2c(C#N)c(C)nc3c2N2CCC3CC2)c1 | 1.8 µM
COc1ccc(CCNc2c(-c3ccccc3O)nc3cnccn23)cc1OC | > 50 µM (inactive)
Cc1ccc(NC(=O)c2ccc(N3CCOCC3)nn2)cc1F | 45.6 µM
CCc1cc2c(=O)[nH]c(Cc3ccc(OC)cc3)nc2s1 | 19.7 µM
CC1CC[C@@]2(NC1)O[C@H]1C[C@H]3[C@@H]4CC=C5C[C@@H](O)CC[C@]5(C)[C@H]4CC[C@]3(C)[C@H]1[C@@H]2C (some centres not stated) | 34.3 µM
CC(C)N(C(=O)Cn1c(=O)[nH]c2ccccc21)c1ccccc1 | > 50 µM (inactive)
O=C1C=CC(O)C2C1CC13SSC4(CC5C(=O)C=CC(O)C5N4C1=O)C(=O)N23 (configuration not stated) | > 50 µM (inactive)
N#Cc1c(SCCO)nc(N2CCCC2)c2c1CCCC2 | 6.47 µM
Cc1nc2nc(SCc3nc4ccccc4n3C)[nH]c2cc1Br | 2.9 µM
COc1ccc(-c2cc(C(=O)NC3CCCCCC3)[nH]n2)cc1S(=O)(=O)N(C)C | 23.6 µM
O=C(NCCCc1nc2ccccc2n1Cc1c(Cl)cccc1Cl)c1ccco1 | 25.3 µM
CC1=C(c2ccc(C)c(C)c2)S(=O)(=O)NC1=NCC(=O)NCCCc1ccccc1 | 25.5 µM
COc1cc2cc3c(c(O)c2c(O)c1-c1c(OC)cc2cc4c(c(O)c2c1O)C(=O)OC1CC(C)OC41)C(=O)OC1CC(C)OC31 (configuration not stated) | > 50 µM (inactive)
Cc1ccc(NC(=O)Cn2cc(S(=O)(=O)N3CCCC3)ccc2=O)cc1 | 17.2 µM
Cc1nnc(NCc2cccnc2)c2c1nnn2Cc1ccccc1Cl | 26.4 µM
O=C1c2c(O)c(Cl)cc3c2[C@@]2(Oc4cc(Cl)c(O)c5c4[C@]3(O2)[C@@H]2O[C@@H]2C5=O)[C@@H]2O[C@H]12 | 0.495 µM
CCC(CC)n1[nH]c(=O)c2c1NC(=O)CSC2c1ccc2c(c1)OCO2 (configuration not stated) | 18.6 µM

SMILES | IC50
CCOc1cc(C2C3=C(CC(C)(C)CC3=O)Nc3onc(C)c32)ccc1O (configuration not stated) | 37.5 µM
CC1CC(=O)Nc2ccccc2N1S(=O)(=O)c1ccc(C#N)cc1 (configuration not stated) | 33.1 µM
COC(=O)c1cc(C#N)c(NCc2ccccc2)nc1C | 45.2 µM
CN(C(=O)CSc1nnc(-c2cc3ccccc3n2C)o1)c1ccccc1 | > 50 µM (inactive)
O=C(Nc1cccc(Br)c1)c1cc(-c2cccnc2)n[nH]1 | 2.15 µM
COc1ccc(OC)c(NC(=O)c2cc(Cl)ccc2OC)c1 | 1.66 µM
c1csc(CCN2CCc3nc4cccnc4cc3C2)c1 | > 50 µM (inactive)
Cc1cnc2nc3c(cc2c1)CN(CCc1ccc(Cl)cc1)CC3 | > 50 µM (inactive)
O=C(Nc1cc(Cl)cc(Cl)c1)c1csnn1 | 15.9 µM
Cc1ccc2c(c1)[C@]1(C(=O)N2)[C@@H]2C(=O)N(c3cccc(C(F)(F)F)c3)C(=O)[C@@H]2C2CCCN21 (some centres not stated) | > 50 µM (inactive)
CC1CC(=O)c2c(cc3c(-c4c(O)cc(O)c5c(O)c6c(cc45)OC(C)CC6=O)c(O)cc(O)c3c2O)O1 (configuration not stated) | 20.8 µM
O=C(NCc1ccc2c(c1)OCO2)c1ccc(C2SCC(=O)N2Cc2ccco2)cc1 (configuration not stated) | > 50 µM (inactive)
O=C(Cn1cc(C(=O)C2CC2)c2ccccc21)NCc1ccc2c(c1)OCO2 | 24.9 µM
Fc1ccc(CSc2nnc(-c3ccccn3)n2Cc2ccco2)cc1 | 21.9 µM
COc1cccc2c1C(=O)c1ccc3c(c1C2=O)C(=O)CC(C)(O)C3 (configuration not stated) | > 50 µM (inactive)
COc1ccc(CCNC(=O)c2cc(C3CC3)nc3c2cnn3C(C)C)cc1 | 3.47 µM
Cc1nc(-c2ccc(-n3cc(C(=O)Nc4cccc(F)c4)c(C)n3)cc2)no1 | 42.5 µM
O=C(Nc1ccc2c(c1)OCCO2)Nc1nnc(CC(=O)N2CCCCC2)s1 | 20.5 µM
Cc1ccc(C2c3c(-c4ccccc4O)n[nH]c3C(=O)N2Cc2ccco2)cc1 (configuration not stated) | 20 µM
O=C(OC1CSc2nc3ccccc3n2C1)c1ccc([N+](=O)[O-])o1 (configuration not stated) | 33.2 µM
Cc1ccc2cc(CCNC(=O)c3cccc(Br)c3)c(=O)[nH]c2c1 | 37.2 µM
COCCN(C1CCN(CCc2ccc(Cl)cc2)CC1)S(=O)(=O)c1cccc2cccnc12 | > 50 µM (inactive)
CCOc1ccc(CCNC(=O)c2ccc3c(c2)N(CC)C(=O)c2ccccc2S3)cc1OCC | 1.89 µM
COc1ccc(C(=O)Nc2ccc3c(c2)Sc2ncccc2C(=O)N3C)cn1 | > 50 µM (inactive)

SMILES | IC50
CCOc1ccccc1NC(=O)Cn1c(=O)n(CCCC(=O)NCc2ccc(C)cc2)c(=O)c2sccc21 | 1.98 µM
Cc1ccc(-n2c(=O)[nH]c3c(C(N)=O)nc(-c4cccnc4)nc32)cc1 | 6.87 µM
O=C(/C=C/c1ccco1)c1cccc([N+](=O)[O-])c1 | 21.9 µM
Cc1cccc(COc2ccc(C3SCC(=O)Nc4n[nH]c(C)c43)cc2)c1 (configuration not stated) | 5.31 µM
O=C(Nc1cc(F)c2nc(N3CCOCC3)ccc2c1)C1CC1 | 44.2 µM
CCOC(=O)CSc1nnc(-c2cnn(-c3ccccc3)c2N)o1 | 19.9 µM
CCC1=C(c2ccc(C)cc2)S(=O)(=O)NC1=NCC(=O)NCc1ccccc1F | 33.2 µM
CC(C)c1nc2sc3c(NCc4ccco4)ncnc3c2c2c1CCC2 | 3.08 µM
COc1ccc(CCNC(=O)c2noc3c2CCc2sccc2-3)cc1OC | 0.655 µM
CN(C)C(=O)CSc1nnc(-c2cccc(Cl)c2)n1-c1ccc(Cl)c(C(F)(F)F)c1 | 5.78 µM
COc1cccc(NC(=O)c2ccc(F)cc2Cl)c1 | 18.7 µM
CCc1ccc(-n2nc(C)c3c2NC(=O)CC3C(=O)c2ccc3c(c2)OCCO3)cc1 (configuration not stated) | 26.4 µM
COc1ccc(C)cc1NC(=O)Cc1csc(NC(=O)c2ccc(=O)[nH]c2)n1 | 46.9 µM
CN(C)CCc1cc2c(c3c1ccc1ccccc13)OCO2 | 4.59 µM
CC(C)N1CC2CN(Cc3ccc(Cl)cc3)CCN2Cc2ccccc21 (configuration not stated) | > 50 µM (inactive)
CCCc1nc2sc3c(N(CC)CC)ncnc3c2c2c1CCC2 | 3.77 µM
CCc1cc2cc3c(cc2nc1SCC(=O)Nc1cccc(C(C)=O)c1)OCO3 | 2.58 µM
CC1Oc2ccccc2C(=O)N(Cc2ccc([N+](=O)[O-])cc2)C1=O (configuration not stated) | 12.5 µM
CCN(CC)C(=O)c1sc(NC(=O)/C=C/c2c(F)cccc2Cl)c(C#N)c1C | 2.93 µM
c1ccc(-n2nnc(-c3noc(-c4ccccn4)n3)c2-c2ccncc2)cc1 | 23.9 µM
Cc1ccc2cccc(OCc3nnc(SCC(=O)c4ccc(Cl)cc4)n3C)c2n1 | 4.77 µM
Cc1cc(C(=O)N2CCOCC2)c(C)n1-c1ccc(O)cc1 | 41.7 µM

Second part, the compound after the results:

IC50 | SMILES
1.65 µM | CCOc1ccc(-c2ccc3nnc(SCC(=O)Nc4cccc(C(C)=O)c4)n3n2)cc1
34.2 µM | COc1ccc(NC(=O)CN2C(=O)c3ccccc3Sc3ccc(C(=O)N4CCCC4)cc32)cc1OC
> 50 µM (inactive) | O=C(OCCCN1C(=O)c2cccc3c(N4CCCCC4)ccc(c23)C1=O)c1ccccn1
> 50 µM (inactive) | COCCCNC(=O)Cn1c(=O)n(Cc2ccc(C(=O)NCc3ccccc3OC)cc2)c(=O)c2ccccc21
4.78 µM | CC(C)(C)C(=O)Nc1ccc(C(=O)Nc2cccc(-c3nnc(-c4ccccc4)o3)c2)cc1
5.1 µM | CC(OC(=O)c1c2c(nc3ccccc13)CCCCC2)C(=O)Nc1ccc2ccccc2c1 (configuration not stated)
> 50 µM (inactive) | COc1ccc2nc3c(cc2c1)c(=O)n(C)c1c3c(=O)n(-c2ccccc2)c(=O)n1-c1ccccc1
4.34 µM | N#Cc1ccc(NC(=O)Nc2cccn(Cc3ccccc3Br)c2=O)cc1
> 50 µM (inactive) | CCOC(=O)c1cc2c(ccn2C)n1Cc1cccc2ccccc12
> 50 µM (inactive) | Cc1ccccc1C(=O)OCCN1C(=O)c2cccc3c(N4CCCCC4)ccc(c23)C1=O
1 µM | O=C(OCc1ccc(Br)cc1)c1ccc2ccccc2n1
11.1 µM | COC(=O)COc1ccc(/C=N/NC(=O)c2ccc(CN3CCc4ccccc4C3)cc2)cc1
5.5 µM | O=c1c2cnc(N3CCCCC3)nc2ccn1CCc1ccccc1
9.36 µM | COc1ccccc1CNC(=O)c1c(O)c2cnn(-c3cccc(C)c3)c2[nH]c1=O
4.45 µM | CCOc1ccccc1NC(=O)COc1cc(OC)ccc1C(=O)c1ccccc1
5.47 µM | CCOC(=O)c1cnn(-c2ccc(C(=O)Nc3ccc(C)c(Cl)c3)cc2)c1N

IC50 | SMILES
> 50 µM (inactive) | Cc1ccccc1-c1noc(-c2ccccc2OCC(=O)NC(C)C)n1
> 50 µM (inactive) | O=C(c1ccc(COc2cccc3ccccc23)o1)N1CCC(Cc2ccccc2)CC1
44.3 µM | CCOc1cccc(NC(=O)c2ccc(S(=O)(=O)N3CCc4ccccc4C3)cc2)c1
42.4 µM | COc1ccccc1CNC(=O)Nc1cccc2ccccc12
29.3 µM | O=C1CC(C(=O)Nc2ccc(F)cc2)n2nc(SCc3ccccc3)nc2N1 (configuration not stated)
38.5 µM | CC(C)C1Cc2c(sc3nc(SCC(=O)Nc4cccc5ccccc45)nc(N)c23)CO1 (configuration not stated)
29.8 µM | CCOc1ccc(N2C(=O)c3ccccc3C2C(=O)NCc2ccccc2OC)cc1 (configuration not stated)
28.2 µM | Cc1ccc(C(=O)NCc2ccc(C(=O)Nc3ccc(C)c(C)c3)o2)cc1
> 50 µM (inactive) | COc1ccc(N2C(=O)[C@@H]3[C@H]4c5ccccc5C=CN4C(C(=O)Nc4ccc5c(c4)OCO5)[C@@H]3C2=O)cc1 (some centres not stated)
7.24 µM | CCOc1cc(N2CCOCC2)c(OCC)cc1NC(=O)c1cc(-c2ccncc2)nc2ccccc12
0.531 µM | O=C(Nc1ccc(Oc2cccc3cccnc23)cc1)c1cccs1
23.3 µM | Cc1ccc2c(c1)[C@]1(C(=O)N2)[C@@H](C(=O)c2ccccc2)[C@]2(C(=O)Nc3ccccc32)[C@@H]2CCCN21
2.56 µM | O=c1c2ccccc2c(-c2nc(-c3ccncc3)no2)cn1-c1ccccc1
1.13 µM | CC(C)NS(=O)(=O)c1ccc(CCC(=O)Nc2ccc3c(c2)OCCO3)cc1
> 50 µM (inactive) | CCOc1ccccc1C(=O)NCC(=O)OC(C(=O)c1c[nH]c2ccccc12)c1ccccc1 (configuration not stated)
> 50 µM (inactive) | Cc1ccc2c(=O)c(C(=O)Nc3ccccc3)cn(CC(=O)NC3CCCCC3)c2n1

Source: PubChem BioAssay AID1645866 (Buhrlage Lab, Dana-Farber Cancer Institute and Novartis …, 2021)
